Tests used:
Format in all cases: in vivo
Conditions in all cases: 15 days after application, 2-4 leaf stage, 0.5% v/v Mero, scale 0-100 (percentage of leaf area damaged), average of 4 replicates
[1] = test system: Soybean - Inbred, Conventional; experiment: Herbicide injury rating, greenhouse, conventional soybean
Description: (§1) Seeds of the regenerated transgenic plants described above were sown in 12-cm tall plastic pots containing standard soil (14.7% sand, 19.9% clay, 65.4% silt, and 1.8% organic matter). Transgenic cotton and corn seed were sown at a density of one seed per pot, whereas soybean was sown at a density of three seeds per pot. Plants were grown in a greenhouse with 60% relative humidity in a light cycle of 13 hour day and 11 hour night. The temperature was kept at 23° C. during the day and 12° C. at night. Herbicide tolerance of transgenic soybean, inbred corn, hybrid corn, and cotton plants, to herbicidal formulations comprising any of A1 to A3 and A7 was measured by applying respective formulations to plants at the 2-4 leaf stage (corresponding to BBCH 12-14) at dose rates of 100 or 200 g ai/ha. Methylated rapeseed oil (Mero) is used as an adjuvant and added to the spray mix for each herbicide at 0.5% v/v. Plants were visually assessed for herbicide injury at the following time points: 8 days, 15 days, 22 days after application. Unsprayed transgenic plants were used for phenotypic comparison with unsprayed wild-type plants.

[2] = test system: Soybean - Inbred, PPO-Transgenic; experiment: Herbicide tolerance evaluation, greenhouse, PPO-transgenic soybean expressing HemG PPO H_N90
Description: as §1, with “Plant transformation vectors were constructed for expressing a chloroplast transit peptide operably linked to the PPO H_[…] (SEQ ID NO:1) in transgenic soybean, inbred corn, hybrid corn, and cotton plants, and introduced into seed-derived explants of soybean, inbred and hybrid corn, and cotton, respectively, through Agrobacterium tumefaciens-mediated transformation using standard methods known in the art. The regenerated R0 plants were analyzed to select for events with a single copy insertion for advancement to R1 nursery for R1 seed production. Seeds” for “Seeds”

[3] = test system: Corn - Inbred, Conventional; experiment: Herbicide injury rating, greenhouse, conventional inbred corn
Description: as §1

[4] = test system: Corn - Inbred, PPO-Transgenic; experiment: Herbicide tolerance evaluation, greenhouse, PPO-transgenic inbred corn expressing HemG PPO H_N90
Description: as §1, with “Plant transformation vectors were constructed for expressing a chloroplast transit peptide operably linked to the PPO H_[…] (SEQ ID NO:1) in transgenic soybean, inbred corn, hybrid corn, and cotton plants, and introduced into seed-derived explants of soybean, inbred and hybrid corn, and cotton, respectively, through Agrobacterium tumefaciens-mediated transformation using standard methods known in the art. The regenerated R0 plants were analyzed to select for events with a single copy insertion for advancement to R1 nursery for R1 seed production. Seeds” for “Seeds”

[5] = test system: Corn - Hybrid, Conventional; experiment: Herbicide injury rating, greenhouse, conventional hybrid corn
Description: as §1

[6] = test system: Corn - Hybrid, PPO-Transgenic; experiment: Herbicide tolerance evaluation, greenhouse, PPO-transgenic hybrid corn expressing HemG PPO H_N90
Description: as §1, with “Plant transformation vectors were constructed for expressing a chloroplast transit peptide operably linked to the PPO H_[…] (SEQ ID NO:1) in transgenic soybean, inbred corn, hybrid corn, and cotton plants, and introduced into seed-derived explants of soybean, inbred and hybrid corn, and cotton, respectively, through Agrobacterium tumefaciens-mediated transformation using standard methods known in the art. The regenerated R0 plants were analyzed to select for events with a single copy insertion for advancement to R1 nursery for R1 seed production. Seeds” for “Seeds”

[7] = test system: Cotton - Inbred, Conventional; experiment: Herbicide injury rating, greenhouse, conventional cotton
Description: as §1

[8] = test system: Cotton - Inbred, PPO-Transgenic; experiment: Herbicide tolerance evaluation, greenhouse, PPO-transgenic cotton expressing HemG PPO H_N90
Description: as §1, with “Plant transformation vectors were constructed for expressing a chloroplast transit peptide operably linked to the PPO H_[…] (SEQ ID NO:1) in transgenic soybean, inbred corn, hybrid corn, and cotton plants, and introduced into seed-derived explants of soybean, inbred and hybrid corn, and cotton, respectively, through Agrobacterium tumefaciens-mediated transformation using standard methods known in the art. The regenerated R0 plants were analyzed to select for events with a single copy insertion for advancement to R1 nursery for R1 seed production. Seeds” for “Seeds”

Compound | Injury rating, Soybean - Inbred Conventional ([1]; 100 g ai/ha) | Injury rating, Soybean - Inbred Conventional ([1]; 200 g ai/ha) | Injury rating, Soybean - Inbred PPO-Transgenic ([2]; 100 g ai/ha) | Injury rating, Soybean - Inbred PPO-Transgenic ([2]; 200 g ai/ha) | Injury rating, Corn - Inbred Conventional ([3]; 100 g ai/ha) | Injury rating, Corn - Inbred Conventional ([3]; 200 g ai/ha) | Injury rating, Corn - Inbred PPO-Transgenic ([4]; 100 g ai/ha) | Injury rating, Corn - Inbred PPO-Transgenic ([4]; 200 g ai/ha) | Injury rating, Corn - Hybrid Conventional ([5]; 100 g ai/ha) | Injury rating, Corn - Hybrid Conventional ([5]; 200 g ai/ha) | Injury rating, Corn - Hybrid PPO-Transgenic ([6]; 100 g ai/ha) | Injury rating, Corn - Hybrid PPO-Transgenic ([6]; 200 g ai/ha) | Injury rating, Cotton - Inbred Conventional ([7]; 100 g ai/ha) | Injury rating, Cotton - Inbred Conventional ([7]; 200 g ai/ha) | Injury rating, Cotton - Inbred PPO-Transgenic ([8]; 100 g ai/ha) | Injury rating, Cotton - Inbred PPO-Transgenic ([8]; 200 g ai/ha)
CC(OC(=O)C1(Oc2cc(-n3c(=O)cc(C(F)(F)F)n(C)c3=O)c(F)cc2Cl)CC1)C(=O)O (stereo not shown) [Compound A2, 2-{[(1-{2-chloro-4-fluoro-5-[3-methyl-2,6-dioxo-4-(trifluoromethyl)-3,6-dihydropyrimidin-1 (2H)-yl]phenoxy}cyclopropyl)carbonyl]oxy}propanoic acid] | 100 | 100 | 0 | 0 | 100 | 100 | 0 | 0 | 100 | 100 | 0 | 0 | 100 | 100 | 0 | 0
C=CCOC(=O)C(C)OC(=O)C1(Oc2cc(-n3c(=O)cc(C(F)(F)F)n(C)c3=O)c(F)cc2Cl)CC1 (stereo not shown) [Compound A7, 1-(allyloxy)-1-oxopropan-2-yl 1-{2-chloro-4-fluoro-5-[3-methyl-2,6-dioxo-4-(trifluoromethyl)-3,6-dihydropyrimidin-1 (2H)-yl]phenoxy}cyclopropanecarboxylate.] | 100 | 100 | 0 | 0 | 100 | 100 | 0 | 0 | 100 | 100 | 0 | 0 | 100− | 100 | 0 | 0
COC(=O)C(C)OC(=O)C1(Oc2cc(-n3c(=O)cc(C(F)(F)F)n(C)c3=O)c(F)cc2Cl)CC1 (stereo not shown) [Compound A3, 1-methoxy-1-oxopropan-2-yl 1-{2-chloro-4-fluoro-5-[3-methyl-2,6-dioxo-4-(trifluoromethyl)-3,6-dihydropyrimidin-1 (2H)-yl]phenoxy}cyclopropanecarboxylate] | 100 | 100 | 0 | 0 | 100 | 100 | 0 | 0 | 100 | 100 | 0 | 0 | 100 | 100 | 0 | 0
CCOC(=O)C(C)OC(=O)C1(Oc2cc(-n3c(=O)cc(C(F)(F)F)n(C)c3=O)c(F)cc2Cl)CC1 (stereo not shown) [Compound A1, 1-ethoxy-1-oxopropan-2-yl 1-{2-chloro-4-fluoro-5-[3-methyl-2,6-dioxo-4-(trifluoromethyl)-3,6-dihydropyrimidin-1 (2H)-yl]phenoxy}cyclopropanecarboxylate] | 100 | 100 | 0 | 0 | 100 | 100 | 0 | 0 | 100 | 100 | 0 | 0 | 100 | 100 | 0 | 0
